For 86 molecules, melting point results are on record in a melting point compilation (Tetko et al.; mined from patent text by program, amines drawn as free bases though some values may be those of a salt).

Where only a bound is given, the exact number is not on record here.

For orientation: melting point means the temperature of the solid-liquid transition. `O=[N+]([O-])c1ccc(Sc2nccn2-c2ccccc2)cc1` returned a melting point of 123 to 125 °C.

Take `CCCCc1nc2ccccc2n1Cc1ccc(-c2ccccc2C=O)cc1`: the melting point was 117 to 118 °C. Molecule `O=C1c2ccccc2C(=O)N1CCN(OCc1ccccc1)C(=S)Nc1c(F)cccc1F` gave a melting point of 141 to 143 °C.

The molecule `COc1cc(C2(O)NC(=O)c3cc(OCc4ccccc4)ccc32)cc(OC)c1OC` (stereo unspecified) gave a melting point of 187 to 189 °C. The molecule `CCc1cc(Br)cc(C(=O)Nc2ccc(F)cn2)n1` registered a melting point of 124 °C. `O=C1c2ccccc2-c2oc(=O)c3ccccc3c21` gave a melting point of 254 to 256 °C. Consider `CC(=O)c1c(Cl)c(Cl)c([N+](=O)[O-])c2c1OCCO2`, for which the melting point is 181 to 182 °C.

On to `COc1cc(C)c(C(=O)c2c(OC)ccc3ccccc23)c(OC)c1OC`, for which the melting point was 72 °C. Molecule `Cc1nnsc1C(=O)Nc1ccc(-n2nc(-c3nccs3)cc2C#N)cc1` showed a melting point of 230 °C.

The molecule `CSc1nc(N2CCc3ccccc3CC2)c(C#N)c(=O)[nH]1` displayed a melting point of over 250 °C. Regarding `O=C(C(c1ccc(Cl)cc1)c1c(Cl)cc(-n2ncc(=O)[nH]c2=O)cc1Cl)N1CCCCC1` (stereo unspecified), the melting point was found to be 217 °C. As to `COc1cc(-c2ncn(Cc3ccccc3)c2-c2scc(OC)c2OC)cc(OC)c1OC`, the melting point fell in the range of 114 to 115 °C. `CC(=O)Oc1ccccc1C(=O)ON(C(N)=O)C(C)c1cc2ccccc2s1` (stereo unspecified) gave a melting point of 141 to 143 °C. To `COc1ccc(C)cc1NC(=O)Nc1ccc(N2CCN(C(=O)Nc3cc(OCCO)ccc3Cl)CC2)cc1` belongs 121 to 124 °C; to `Cn1cccc1C(=O)C(C#N)C(=O)Nc1ccc(O)cc1` (stereo unspecified), 182 to 184 °C. To `CC(C)C(=O)NCCNCC(O)COc1ccc(O)c(CO)c1` (stereo unspecified) belongs 148 to 149 °C; to `CCCN1OCC(=Cc2cc(C(C)(C)C)c(O)c(C(C)(C)C)c2)C1=O`, 194 to 196 °C; to `Cc1ccc(C(=O)O)nn1`, 174 °C. Regarding `Cn1ncnc1COc1ccc2nnc(-c3ccccc3)n2n1`, the melting point amounted to 254 °C.

`O=C1NCc2c1cccc2-c1cccc2cc(Cc3cccc(C(F)(F)F)c3)sc12`: the melting point is 195 to 196 °C. Regarding `CCN(CC)C(=O)C=Cc1ccc(C)c(C)c1`, the melting point worked out at 36.6 °C. `Cc1nc(-c2ccccc2)nc(-c2ccncc2)c1CO` showed a melting point of 175 to 176 °C.

`Cc1ccc2ccc(N3C(=O)c4ccccc4C3OC(=O)N3CCN(C)CC3)nc2n1` (stereo unspecified) gave a melting point of 190 °C. To `CCCCCCCCCCCCCCCCCCOc1cc(OCCCOc2ccc(S(C)(=O)=O)cc2)cc(N(CC(=O)O)CC(=O)O)c1` belongs 118 to 120 °C. `O=C(Nc1ccccc1)NC1C(=O)N(CCO)c2ccccc2N(CC23CC4CC(CC(C4)C2)C3)C1=O` (single isomer, unassigned; (-)) showed a melting point of 165 to 170 °C. As to `CCNC1=NN(c2cccc(C(F)(F)F)c2)CC1`, the melting point was 172 °C.

The molecule `CCc1cc(C(=O)O)ccc1C(N)C(=O)O` (stereo unspecified) returned a melting point of 189 to 193 °C. `COc1ccc(C2=NN(c3nc(C)ccc3C(F)(F)F)C(=O)C3CC=CCC23)cc1Cl` (stereo unspecified): the melting point is 156 to 157 °C. Turning to `CN1OC(COc2ccccc2)CC1(Cn1ccnc1)c1ccc2ccccc2c1` (stereo unspecified), the melting point lay in the range of 176 to 178 °C. As for `CCOC(=O)c1ccc(NC(=O)c2ccccc2C)cc1`, the melting point was in the range of 110 to 115 °C. `CC(C)Oc1ccc(C(=O)NCCN2CCC(Oc3ccc(Cl)c(Cl)c3)CC2)cc1` had a melting point of 113 to 115 °C. `O=c1cc(C(F)(F)F)c2ccc(NCCc3ccccc3)nc2o1` returned a melting point of 104 to 106 °C.

`N#Cc1nn(-c2c(Cl)cc(C(F)(F)F)cc2Cl)cc1-c1ccoc1Br`: the melting point stood at 111 °C. `Cc1oc2ccc(S(=O)(=O)C[N+](=O)[O-])cc2c(=O)c1C` showed a melting point of 206 to 209 °C. To `Clc1ncnc2ccoc12` belongs 122 °C; to `COc1ccc(C(=O)Nc2ccccc2)cc1NC(=S)NC(=O)c1ccccc1`, 219 to 222 °C; to `CCN(CC)c1ccc(C2(c3ccc(N(C)C)cc3N(C)C)OC(=O)c3c(Cl)c(Cl)c(Cl)c(Cl)c32)c(C)c1` (stereo unspecified), 236 to 238 °C. Turning to `ON=C1CC(c2ccccc2)Cc2ccccc21` (stereo unspecified), the melting point worked out at 195 °C. The same measure for `COc1ccc(-c2cncc(OC3SCC(OC(C)=O)C(OC(C)=O)C3OC(C)=O)c2)cc1Cl` (stereo unspecified): 155 °C; for `Cn1ncc2[nH]c3ccc(Cc4ccccc4Cl)cc3c(=O)c21`: 278 °C. In turn, `COc1ccc(Cc2ccc(C#N)cc2)cc1` showed a melting point of 41.5 to 43.5 °C.

With `CCn1c(=O)c2c(C)onc2n(C)c1=O`, the melting point fell in the range of 103 to 104 °C. To `CCOc1cc2cc(C(=O)OC)c(C(=O)OC)c(-c3ccncc3)c2cc1OCC` belongs 149 to 150 °C. To `O=C1NC(=O)c2c1c(-c1c(O)cccc1Cl)cc1[nH]c3ccc(O)cc3c21` belongs 228 to 235 °C; to `Nc1nc(N)c(-c2cccc3ccccc23)c(C(F)(F)F)n1`, 224 to 226 °C. `CCc1nc2c([nH]1)C(=O)N(C)CN2c1ccc(Cl)cc1Cl` yielded a melting point of 200 to 201 °C. Regarding `CCOC(=O)c1cc(S)cc(S)c1`, the melting point lay within 49 to 51 °C.

`Cc1cc(C)cc(Oc2ccc([N+](=O)[O-])cc2S(=O)(=O)N2CCN(C(=O)OC(C)(C)C)CC2)c1` registered a melting point of 232 to 233 °C.

With `CCOCN1C(C)=C(C(=O)O)C(c2cccc([N+](=O)[O-])c2)C(C(=O)OC)=C1C` (single isomer, unassigned; (-)), the melting point was 134 to 135 °C. As for `O=C(CCCCC1SCC2NC(=O)NC21)NCCOCCOCCN1C(=O)C(Br)=C(Br)C1=O` (stereo unspecified), the melting point is 100 to 102 °C. Take `CCN1C(=O)COc2ccc(-c3sc(N)nc3-c3cccc(C)n3)cc21`: the melting point lay within 228 to 230 °C.

With `Cc1ccc(Nc2nc(-c3ccccc3)c(C(=O)c3sc(Nc4ccc(C)cc4)nc3-c3ccccc3)s2)cc1`, the melting point was over 285 °C. `COc1ccc(NC(=O)Nc2ccc(C(=O)O)cc2)cc1C12CC3CC(CC(C3)C1)C2`: the melting point lay in the range of 140 to 141 °C. Turning to `Clc1ccc(COc2ccc(-c3nc(COc4ccc(CCCn5ccnc5)cc4)co3)cc2)cc1`, the melting point was 151 to 152 °C. To `CS(=O)(=O)c1ccc(-c2cc(C(F)(F)F)nn2-c2ccc(C#N)cc2)cc1` belongs 140 to 142 °C; to `CC(C)(C)NS(=O)(=O)c1cccc2c1CSC2`, 128 to 132 °C; to `Cc1cc(-c2cc(Br)n(C)n2)c(C)[nH]1`, 66 to 69 °C. The same measure for `C=Cc1ccc(CSCCOC(=O)COCC(=O)O)cc1`: 63 to 68 °C. For the molecule `OCc1cnn(-c2ccccc2)c1-c1ccccc1`, the melting point fell in the range of 147 to 148 °C.

As for `CCOc1cc2c(-c3ccnc(Cl)c3)c(CO)c(CO)cc2cc1OC`, the melting point is 123 to 126 °C. `Fc1ccc([C@H]2CC[C@H](N3CCN(Cc4ccc5ccccc5n4)CC3)CC2)cc1` had a melting point of 160 to 162 °C. In the case of `Oc1ccc(Cn2ccnc2)c2cccnc12`, the melting point amounted to 182 °C. Turning to `COC(=O)CS(=O)(=O)CCCC=C1SC=CS1`, the melting point was in the range of 85 to 86 °C. Molecule `COc1ccc(-c2cnc3c(n2)c(C#N)cn3S(=O)(=O)c2ccc(C)cc2)cc1OC` showed a melting point of 233 to 234 °C.

`COc1ccc(N(N)c2ncnc3cc(Cl)ccc23)cc1` yielded a melting point of 124 to 127 °C.

Turning to `COCCCNC(=O)c1cc(Br)c(OCc2ccccc2)cc1OCc1ccccc1`, the melting point is 104 to 106 °C. `N#Cc1ccc(-c2ccc(SC3SCC(O)C(O)C3O)cc2)cc1` (stereo unspecified) showed a melting point of 168 °C.

The molecule `O=C(CCCCCCCCC(=O)Oc1ccc(C(=O)OCc2ccccc2)cc1)Oc1ccc(C(=O)OCc2ccccc2)cc1` gave a melting point of 62.5 to 63 °C. On to `O=[N+]([O-])c1ccc(C=C2c3ccccc3C=Cc3ccccc32)cc1`, for which the melting point was 152 °C. `COc1ccc(CNC(=O)c2c(-c3ccncc3)c(-c3ccc(F)cc3)nn2C)cc1` had a melting point of 162 to 165 °C. `CCC1(CC)OC(=O)Nc2ccc(-c3cccc(Cl)c3)cc21` yielded a melting point of 150 to 151 °C. The same measure for `CCCc1c(-c2ccncc2)[nH]c(-c2ccncc2)c1C(C)=O`: 111 to 113 °C; for `Nc1ccc(OCCN2CCN(c3nsc4ccccc34)CC2)cc1`: 128 °C; for `O=Cc1cc(-c2ccc3nnn(Cc4ccc5ncccc5c4)c3n2)cs1`: 195 to 197 °C.

As to `COc1ccc2c(c1)CCc1ccc(-c3ccccc3)cc1C21N=C(N)N(C)C1=O` (stereo unspecified), the melting point lay within 167 to 171 °C. The molecule `CC(C)OC(=O)Cn1c(=O)n(C)c(=O)n(-c2ccc(F)cc2Cl)c1=O` registered a melting point of 127 to 128 °C. As for `CCC(=O)N[C@@H](C)C(=O)N1CCC[C@H]1C(=O)NC(C)C`, the melting point fell in the range of 173 to 175 °C. Molecule `CCCCCCOC1CC(C)(C)N(c2nc(Cl)nc(Cl)n2)C(C)(C)C1` yielded a melting point of 49 to 51 °C. Turning to `CO/N=C(\C(=O)OC)c1csc(O)n1`, the melting point was in the range of 97 to 98 °C.

In the case of `CNc1cc(Cc2cnc(N)nc2N)cc(N(C)C)c1OC`, the melting point turned out to be 183 °C.

Regarding `C[C@@H](n1cnc2cc(C=NNS(N)(=O)=O)ccc2c1=O)[C@](O)(Cn1cncn1)c1ccc(F)cc1F`, the melting point lay in the range of 202 to 206 °C. As to `CCCC(=O)N[C@H]1C[C@H](C(=O)OC)Nc2cc(Cl)cc(Cl)c21` (relative stereo), the melting point fell in the range of 205 to 206 °C.

As for `O=C(O)c1oc(=O)c2ccccc2c1-c1ccc(F)cc1`, the melting point was in the range of 218 to 220 °C.

As to `CCOC(=O)C1Cc2cc(OC)c(OC)cc2N1C(=O)CCSC(C)=O` (stereo unspecified), the melting point lay within 104 to 106 °C. As for `O=C1CCCCN1CCCOC1c2ccccc2C(=O)N1c1ccc2ccc(Cl)nc2n1` (stereo unspecified), the melting point was found to be 140 °C. As to `O=C1CCc2cc(NCC(=O)N3CCC(Oc4ccc(Cl)cc4)CC3)ccc2N1`, the melting point fell in the range of 248 to 251 °C.
